By EC50 is commonly meant the concentration at which the effect is half-maximal.

SMILES strings stand for the structures.

Experiment [1] has as its target Integrin alpha5/beta1 (Homo sapiens). Briefly: Agonist activity at alpha5beta1 integrin receptor in human K562 cells assessed as inhibition of fibronectin-induced cell adhesion pre-incubated for 30 mins followed by 1 hr incubation in fibronectin coated wells by fluorescence plate reader assay.
For experiment [2], the target named is Integrin alpha-L/beta-2 (LFA-1) (Homo sapiens). Put plainly: Agonist activity at alphaLbeta2 integrin receptor in human Jurkat E6.1 cells assessed as inhibition of ICAM-1-induced cell adhesion pre-incubated for 30 mins followed by 30 mins incubation in ICAM-1 coated wells by fluorescence plate reader assay.
The target of experiment [3] is Integrin alpha4/beta1 (Homo sapiens). Briefly: Agonist activity at alpha4beta1 integrin receptor in human Jurkat E6.1 cells assessed as inhibition of fibronectin-induced cell adhesion pre-incubated for 30 mins followed by 30 mins incubation in fibronectin coated wells by fluorescence plate reader assay.
Experiment [4] has the same target. Briefly: Agonist activity at alpha4beta1 integrin receptor in human Jurkat E6.1 cells assessed as inhibition of vascular cell adhesion molecule 1-induced cell adhesion pre-incubated for 30 mins followed by 30 mins incubation in vascular cell adhesion molecule 1 coated wells by fluorescence plate reader assay.

On to `Cc1ccccc1NC(=O)N1C(=O)CC1CC(=O)O` (stereo not given), for which the EC50 in experiment [1] and in experiment [2] was above 5 µM throughout.

`Cc1ccccc1NC(=O)N1C(=O)CC1CC(=O)NCC(=O)O` (stereo not given): the EC50 in experiment [3], in experiment [4] and in experiment [2] was above 5 µM in each case.

For the origin of these results see BindingDB's records for doi:10.1021/acs.jmedchem.2c02098 (University of Bologna, 2023).
